In patent US20160106708A1, “USE OF ANTIOXIDANTS FOR THE TREATMENT OF COGNITIVE AND BEHAVIOURAL DISORDERS IN INDIVIDUALS WITH FRAGILE X SYNDROME” (Servicio Andaluz de Salud, priority 2010, published 2016):

Columns and labels:
[1] = system: patients with Fragile X syndrome; conditions: cited from earlier work; for Efficacy on symptoms in patients with Fragile X Syndrome: published trials
FMR1-KO mice [2] = assay: Open field, locomotive activity (hyperactivity); assay type: in vivo, mouse; conditions: chronic treatment, 15-minute period, treated vs FMR1-KO without treatment, saline control and Tianeptine (tianeptine group: FMR1-KO vs WT)
Text: FIG. 1. Open-field distance travelled by the mice in a 15-minute period of time for the different treatments.
In all the groups of WT mice, locomotion was maintained without significant variations, about 4000 cm of distance travelled (FIG. 1); this test was used to check the mice's hyperactivity.

FMR1-KO mice [3] = assay: Level of lipid peroxidation (TBARS) in cerebral membranes; assay type: in vivo, mouse; conditions: FMR1-KO vs WT under treatment; tianeptine: both genotypes vs saline control
Text: FIG. 4. Concentration of TBARS in mouse cerebral membranes (nmol/mg protein).

Fmr1-KO mouse = conditions: chronic treatment; cited from earlier work
FMR1-KO mice [4] = assay: Measurement of corticosterone in serum; assay type: in vivo, mouse; conditions: FMR1-KO mice vs WT controls under the same treatment
Text: FIG. 3. Concentration of corticosterone in mouse serum (ng/ml).

FMR1-KO mice [5] = assay: Oxidised glutathione (GSSG, % of GSH) in brain extract; assay type: in vivo, mouse; conditions: vs saline and naive controls
Text: FIG. 6. Percentage of GSSG with respect to GSH in mouse brain extract. FMR1-KO (n=8): black bars and WT (n=9): white bars. *p<0.05 FMR1-KO vs. WT. # p<0.05 FMR1-KO vs. FMR1-KO. † p<0.05 WT vs. WT.

FMR1-KO mice [6] = assay: Raised cross-shaped maze (anxiety); assay type: in vivo, mouse; conditions: chronic treatment, 5-minute period, treated vs FMR1-KO without treatment, saline control and Tianeptine (Tianeptine group: FMR1-KO vs WT)
Text: FIG. 2. Percentage permanence time in the open arm of the raised cross-shaped maze in a 5-minute period of time for the different treatments.
This test is used to determine the anxiety of the animal model, under baseline and treated conditions.

FMR1-KO mice [7] = assay: Reduced glutathione (GSH) in brain extract; assay type: in vivo, mouse; conditions: vs saline control
Text: FIG. 5. Concentration of GSH in mouse brain extract (μmol/g protein). FMR1-KO (n=8): black bars and WT (n=9): white bars. *p<0.05 FMR1-KO vs. WT. # p<0.05 FMR1-KO vs. FMR1-KO. † p<0.05 WT vs. WT.

children with Autism = conditions: 18 children with Autism; cited from earlier work
[8] = human; cited from earlier work
[9] = system: transgenic mouse model for Alzheimer's disease; conditions: cited from earlier work
[10] = system: patients with Alzheimer's disease; conditions: cited from earlier work
[11] = system: cytotoxicity induced by L-buthionine-sulfoximine (BSO); conditions: BSO causes decrease in intracellular glutathione; cited from earlier work

COC(=O)N1CC[C@@H]2[C@H]1CCC[C@@]2(O)C#Cc1cccc(C)c1 [AFQ056]
Efficacy on symptoms in patients with Fragile X Syndrome [1]: demonstrates its effectiveness on the behavioural and learning problems

COc1ccc2[nH]cc(CCNC(C)=O)c2c1 [Melatonin]
Open-field total distance travelled (FMR1-KO mice [2]): lower (p<0.05)
Levels of TBARS in cerebral membranes (FMR1-KO mice [3]): normalises the levels of TBARS
Effect on parameters characteristic of the syndrome (hyperactivity, anxiety disorder, cognitive deficit) (Fmr1-KO mouse): normalising several parameters characteristic of the syndrome
Concentration of corticosterone in serum (FMR1-KO mice [4]): maintained the same levels of corticosterone as compared to the WT controls
Percentage of GSSG with respect to GSH in brain extract (FMR1-KO mice [5]): normalised the values of GSSG
Percentage permanence time in the open arm of the raised cross-shaped maze (FMR1-KO mice [6]): lower (p<0.05)
GSH in brain extract (FMR1-KO mice [7]): higher values of GSH
Efficacy on symptoms in patients with Fragile X Syndrome [1]: reduce the sleep problems

O=C1O[C@H]([C@@H](O)CO)C(O)=C1O [Vitamin C, Ascorbic Acid]
Effect on symptoms of Autism (children with Autism): significant decrease of some symptoms
Half-life [8]: 16 days

CN1c2ccccc2C(NCCCCCCC(=O)O)c2ccc(Cl)cc2S1(=O)=O (centres unmarked) [Tianeptine]
Open-field total distance travelled (FMR1-KO mice [2]): greater total travelled distance

CC(=O)O[C@H](CC(=O)[O-])C[N+](C)(C)C [L-acetylcarnitine]
Efficacy on symptoms in patients with Fragile X Syndrome [1]: efficacy in reducing hyperactivity and improving social relations

Cc1c(C)c2c(c(C)c1O)CC[C@@](C)(CCC[C@H](C)CCC[C@H](C)CCCC(C)C)O2 [Vitamin E, alpha-Tocopherol]
Lipid peroxidation and amyloid deposition [9]: reduced lipid peroxidation and amyloid deposition
Open-field total distance travelled (FMR1-KO mice [2]): lower (p<0.05)
Levels of TBARS in cerebral membranes (FMR1-KO mice [3]): normalises the levels of TBARS
Effect on parameters characteristic of the syndrome (hyperactivity, anxiety disorder, cognitive deficit) (Fmr1-KO mouse): normalising several parameters characteristic of the syndrome
Concentration of corticosterone in serum (FMR1-KO mice [4]): maintained the same levels of corticosterone as compared to the WT controls
Percentage of GSSG with respect to GSH in brain extract (FMR1-KO mice [5]): normalised the values of GSSG
Percentage permanence time in the open arm of the raised cross-shaped maze (FMR1-KO mice [6]): lower (p<0.05)
Effect on mental deterioration [10]: capable of delaying mental deterioration
GSH in brain extract (FMR1-KO mice [7]): higher values of GSH
Protection against BSO-induced cytotoxicity [11]: significant protection

CN1CC(=O)NC1=NC(=O)Nc1cccc(Cl)c1 [Fenoban]
Efficacy on symptoms in patients with Fragile X Syndrome [1]: efficacy

COc1cc2c(cc1OC)C(=O)C(CC1CCN(Cc3ccccc3)CC1)C2 (centres unmarked) [donezepil]
Efficacy on symptoms in patients with Fragile X Syndrome [1]: significantly improves cognitive and behavioural functions

CC12CC3CC(C)(C1)CC(N)(C3)C2 [Nemantine]
Patients showing symptoms of improvement ([1]; of 6 affected patients): 4
